Reference: patent US6770596B1, “Fused tricyclic compounds, process for their preparation, and herbicidal compositions containing them” (Ishihara Sangyo Kaisha Ltd., priority 2002, dated 2004)

Columns and labels:
Assay type in all cases: in vivo
[1] = system: soybean (Glycine max L., var. Pella 86, SOY); assay: Pre-emerge test, crop damage soybean
Text: (§1) A standard greenhouse herbicide activity screening system was used to evaluate the herbicidal efficacy and crop safety of these test compounds. Seven broadleaf weed species including redroot pigweed (Amaranthus retroflexus, AMR), velvetleaf (Abutilon theophrasti, ABT), sicklepod (Cassia obtusifolia, CAO), ivyleaf morningglory (Ipomoea hederacea, IPH), lambsquarters (Chenopodium album, CHA), common ragweed (Ambrosia artemisiifolia L., AML), and cocklebur (Xanthium strumariunt, XAS) were used as test species. Four grass weed species including green foxtail (Setaria viridis, SEV), barnyardgrass (Echinachloa crus-galli, ECC), johnsongrass (Sorghum halepense, SOH), and large crabgrass (Digitaria sanguinalis, DIS) were also used. In addition, four crop species, field corn (Zea mays L., var. Dekalb 535, CORN), soybean (Glycine max L., var. Pella 86, SOY), upland rice (Oryza sp., var.Tebonnet, RICE), and wheat (Triticum aestivum) were included all plants were grown in 10 cm square plastic pots which were filled with a sandy loam soil mix.
(§2) For pre-emerge tests, seeds were planted one day prior to application of the test compounds. All test compounds were dissolved in acetone and applied to the test pots in a volume of 187 l/ha. Test materials were applied at rates ranging from 8 g ai/ha to 1000 g ai/ha using a track sprayer equipped with a TJ8001E even flow flat fan spray nozzle. This application simulates a typical commercial field herbicide application.
(§3) At 14 days after application of the test materials, phytotoxicity ratings were recorded. A rating scale of 0-100 was used for both pre and post emerge tests as previously described in Research Methods in Weed Science, 2nd edition, B, Truelove, Ed., Southern Weed Science Society, Auburn University, Auburn, Ala., 1977. Briefly, “0” corresponds to no damage and “100” corresponds to complete death of all plants in the test unit. This scale was used both to determine efficacy against weed species and damage to crop species. Herbicide activity data for various compounds of this invention, which are shown by compound No. in Tables 1-3, are shown in Tables 5 and 6.

[2] = system: large crabgrass (Digitaria sanguinalis, DIS); assay: Pre-emerge test, large crabgrass; details: 250 g ai/ha, 14 days after application, rating scale 0-100 (0 no damage, 100 complete death)
Text: as §1, §2, §3

[3] = system: field corn (Zea mays L., var. Dekalb 535, CORN); assay: Pre-emerge test, crop damage field corn
Text: as §1, §2, §3

[4] = system: ivyleaf morningglory (Ipomoea hederacea, IPH); assay: Pre-emerge test, ivyleaf morningglory; details: 250 g ai/ha, 14 days after application, rating scale 0-100 (0 no damage, 100 complete death)
Text: as §1, §2, §3

[5] = system: redroot pigweed (Amaranthus retroflexus, AMR); assay: Pre-emerge test, redroot pigweed; details: 250 g ai/ha, 14 days after application, rating scale 0-100 (0 no damage, 100 complete death)
Text: as §1, §2, §3

[6] = system: lambsquarters (Chenopodium album, CHA); assay: Pre-emerge test, lambsquarters; details: 250 g ai/ha, 14 days after application, rating scale 0-100 (0 no damage, 100 complete death)
Text: as §1, §2, §3

[7] = system: cocklebur (Xanthium strumariunt, XAS); assay: Post-emerge test, cocklebur; details: 250 g ai/ha, 14 days after application, rating scale 0-100 (0 no damage, 100 complete death)
Text: as §1, §2
(§4) For post-emerge tests, seeds were planted 8-21 days prior to the test to allow emergence and good foliage development prior to application of the test substances. At the time of the post-emerge application, plants of all species were usually at the 2-3 leaf stage of development. In the postemerge test, a commercial non-ionic surfactant was also included (0.25% v/v) to enhance wetting of the leaf surfaces of target plants.
as §3

[8] = system: ivyleaf morningglory (Ipomoea hederacea, IPH); assay: Post-emerge test, ivyleaf morningglory; details: 250 g ai/ha, 14 days after application, rating scale 0-100 (0 no damage, 100 complete death)
Text: as §1, §2, §4, §3

[9] = system: velvetleaf (Abutilon theophrasti, ABT); assay: Post-emerge test, velvetleaf; details: 250 g ai/ha, 14 days after application, rating scale 0-100 (0 no damage, 100 complete death)
Text: as §1, §2, §4, §3

[10] = system: green foxtail (Setaria viridis, SEV); assay: Post-emerge test, green foxtail; details: 250 g ai/ha, 14 days after application, rating scale 0-100 (0 no damage, 100 complete death)
Text: as §1, §2, §4, §3

[11] = system: barnyardgrass (Echinachloa crus-galli, ECC); assay: Pre-emerge test, barnyardgrass; details: 250 g ai/ha, 14 days after application, rating scale 0-100 (0 no damage, 100 complete death)
Text: as §1, §2, §3

[12] = system: sicklepod (Cassia obtusifolia, CAO); assay: Post-emerge test, sicklepod; details: 250 g ai/ha, 14 days after application, rating scale 0-100 (0 no damage, 100 complete death)
Text: as §1, §2, §4, §3

[13] = system: barnyardgrass (Echinachloa crus-galli, ECC); assay: Post-emerge test, barnyardgrass; details: 250 g ai/ha, 14 days after application, rating scale 0-100 (0 no damage, 100 complete death)
Text: as §1, §2, §4, §3

[14] = system: cocklebur (Xanthium strumariunt, XAS); assay: Pre-emerge test, cocklebur; details: 250 g ai/ha, 14 days after application, rating scale 0-100 (0 no damage, 100 complete death)
Text: as §1, §2, §3

[15] = system: green foxtail (Setaria viridis, SEV); assay: Pre-emerge test, green foxtail; details: 250 g ai/ha, 14 days after application, rating scale 0-100 (0 no damage, 100 complete death)
Text: as §1, §2, §3

[16] = system: sicklepod (Cassia obtusifolia, CAO); assay: Pre-emerge test, sicklepod; details: 250 g ai/ha, 14 days after application, rating scale 0-100 (0 no damage, 100 complete death)
Text: as §1, §2, §3

[17] = system: upland rice (Oryza sp., var.Tebonnet, RICE); assay: Post-emerge test, crop damage upland rice
Text: as §1, §2, §4, §3

[18] = system: redroot pigweed (Amaranthus retroflexus, AMR); assay: Post-emerge test, redroot pigweed; details: 250 g ai/ha, 14 days after application, rating scale 0-100 (0 no damage, 100 complete death)
Text: as §1, §2, §4, §3

[19] = system: common ragweed (Ambrosia artemisiifolia L., AML); assay: Pre-emerge test, common ragweed; details: 250 g ai/ha, 14 days after application, rating scale 0-100 (0 no damage, 100 complete death)
Text: as §1, §2, §3

[20] = system: wheat (Triticum aestivum); assay: Post-emerge test, crop damage wheat
Text: as §1, §2, §4, §3

[21] = system: upland rice (Oryza sp., var.Tebonnet, RICE); assay: Pre-emerge test, crop damage upland rice
Text: as §1, §2, §3

[22] = system: common ragweed (Ambrosia artemisiifolia L., AML); assay: Post-emerge test, common ragweed; details: 250 g ai/ha, 14 days after application, rating scale 0-100 (0 no damage, 100 complete death)
Text: as §1, §2, §4, §3

[23] = system: johnsongrass (Sorghum halepense, SOH); assay: Post-emerge test, johnsongrass; details: 250 g ai/ha, 14 days after application, rating scale 0-100 (0 no damage, 100 complete death)
Text: as §1, §2, §4, §3

[24] = system: soybean (Glycine max L., var. Pella 86, SOY); assay: Post-emerge test, crop damage soybean
Text: as §1, §2, §4, §3

[25] = system: wheat (Triticum aestivum); assay: Pre-emerge test, crop damage wheat
Text: as §1, §2, §3

[26] = system: lambsquarters (Chenopodium album, CHA); assay: Post-emerge test, lambsquarters; details: 250 g ai/ha, 14 days after application, rating scale 0-100 (0 no damage, 100 complete death)
Text: as §1, §2, §4, §3

[27] = system: johnsongrass (Sorghum halepense, SOH); assay: Pre-emerge test, johnsongrass; details: 250 g ai/ha, 14 days after application, rating scale 0-100 (0 no damage, 100 complete death)
Text: as §1, §2, §3

[28] = system: large crabgrass (Digitaria sanguinalis, DIS); assay: Post-emerge test, large crabgrass; details: 250 g ai/ha, 14 days after application, rating scale 0-100 (0 no damage, 100 complete death)
Text: as §1, §2, §4, §3

[29] = system: field corn (Zea mays L., var. Dekalb 535, CORN); assay: Post-emerge test, crop damage field corn
Text: as §1, §2, §4, §3

[30] = system: velvetleaf (Abutilon theophrasti, ABT); assay: Pre-emerge test, velvetleaf; details: 250 g ai/ha, 14 days after application, rating scale 0-100 (0 no damage, 100 complete death)
Text: as §1, §2, §3

[31] = pre-emerge, 250 g ai/ha, 14 days after application, rating scale 0-100 (0 no damage, 100 complete death)
[32] = post-emerge, 250 g ai/ha, 14 days after application, rating scale 0-100 (0 no damage, 100 complete death)
[33] = var. Pella 86, Glycine max (soybean), in vivo, 14 days
[34] = var. Dekalb 535, Zea mays (field corn), in vivo, 14 days
[35] = var. Tebonnet, Oryza sp. (upland rice), in vivo, 14 days
[36] = Triticum aestivum (wheat), in vivo, 14 days

Structure (SMILES) | Pre-emerge Herbicidal Activity DIS (phytotoxicity rating) [2] | Pre-emerge Herbicidal Activity IPH (phytotoxicity rating) [4] | Pre-emerge Herbicidal Activity AMR (phytotoxicity rating) [5] | Pre-emerge Herbicidal Activity CHA (phytotoxicity rating) [6] | Post-emerge Herbicidal Activity XAS (phytotoxicity rating) [7] | Post-emerge Herbicidal Activity IPH (phytotoxicity rating) [8] | Post-emerge Herbicidal Activity ABT (phytotoxicity rating) [9] | Post-emerge Herbicidal Activity SEV (phytotoxicity rating) [10] | Pre-emerge Herbicidal Activity ECC (phytotoxicity rating) [11] | Post-emerge Herbicidal Activity CAO (phytotoxicity rating) [12] | Post-emerge Herbicidal Activity ECC (phytotoxicity rating) [13] | Pre-emerge Herbicidal Activity XAS (phytotoxicity rating) [14] | Pre-emerge Herbicidal Activity SEV (phytotoxicity rating) [15] | Pre-emerge Herbicidal Activity CAO (phytotoxicity rating) [16] | Post-emerge Herbicidal Activity AMR (phytotoxicity rating) [18] | Pre-emerge Herbicidal Activity AML (phytotoxicity rating) [19] | Post-emerge Herbicidal Activity AML (phytotoxicity rating) [22] | Post-emerge Herbicidal Activity SOH (phytotoxicity rating) [23] | Post-emerge Herbicidal Activity CHA (phytotoxicity rating) [26] | Pre-emerge Herbicidal Activity SOH (phytotoxicity rating) [27] | further results
CCC1C(=O)Nc2c3c(cc(F)c2-n2c(=O)cc(C(F)(F)F)n(C)c2=O)OCC(=O)N31 (stereo not drawn) [1-4] | 100 | 100 | 100 | 100 | 90 | 90 | 100 | 60 | 100 | 0 | 50 | 100 | 100 | 99 | 0 | 100 | 80 | 15 | 99 | 100 | Pre-emerge crop damage SOY (phytotoxicity rating) [1, 31]: 100; Pre-emerge crop damage CORN (phytotoxicity rating) [3, 31]: 100; Post-emerge crop damage RICE (phytotoxicity rating) [17, 32]: 75; Post-emerge crop damage WHEAT (phytotoxicity rating) [20, 32]: 25; Pre-emerge crop damage RICE (phytotoxicity rating) [21, 31]: 99; Post-emerge crop damage SOY (phytotoxicity rating) [24, 32]: 60; Pre-emerge crop damage WHEAT (phytotoxicity rating) [25, 31]: 100; Post-emerge Herbicidal Activity DIS (phytotoxicity rating) [28]: 0; Post-emerge crop damage CORN (phytotoxicity rating) [29, 32]: 0; Pre-emerge Herbicidal Activity ABT (phytotoxicity rating) [30]: 100
Cn1nc(-c2c(F)cc3c4c2NC(=O)CN4C(=O)CO3)c(Cl)c1C(F)(F)F [1-13, 8-[4-Chloro-1-methyl-5-(trifluoromethyl)-1H-pyrazol-3-yl]-9-fluoro-5H-pyrazino[1,2,3-de]-1,4-benzoxazine-3,6(2H, 7H)-dione] | 100 | 100 | 100 | 100 | 100 | 100 | 100 | 100 | 100 | 100 | 99 | 80 | 100 | 100 | 100 | 100 | 100 | 100 | 100 | 100 | Pre-emerge crop damage SOY (phytotoxicity rating) [1, 33]: 50; Pre-emerge crop damage CORN (phytotoxicity rating) [3, 34]: 90; Post-emerge crop damage RICE (phytotoxicity rating) [17, 35]: 99; Post-emerge crop damage WHEAT (phytotoxicity rating) [20, 36]: 25; Pre-emerge crop damage RICE (phytotoxicity rating) [21, 35]: 90; Post-emerge crop damage SOY (phytotoxicity rating) [24, 33]: 100; Pre-emerge crop damage WHEAT (phytotoxicity rating) [25, 36]: 65; Post-emerge Herbicidal Activity DIS (phytotoxicity rating) [28]: 55; Post-emerge crop damage CORN (phytotoxicity rating) [29, 34]: 25; Pre-emerge Herbicidal Activity ABT (phytotoxicity rating) [30]: 100
